Source: BindingDB's records for doi:10.1016/j.bmcl.2006.09.026 (Mediquest Therapeutics, 2006)

These molecules were tested against Transcription factor p65 (Human, UniProt Q04206) (assay: Inhibition of NF-kappaB in human HEK293 cells).
Transcription factor p65, sequence (Q04206 whole entry): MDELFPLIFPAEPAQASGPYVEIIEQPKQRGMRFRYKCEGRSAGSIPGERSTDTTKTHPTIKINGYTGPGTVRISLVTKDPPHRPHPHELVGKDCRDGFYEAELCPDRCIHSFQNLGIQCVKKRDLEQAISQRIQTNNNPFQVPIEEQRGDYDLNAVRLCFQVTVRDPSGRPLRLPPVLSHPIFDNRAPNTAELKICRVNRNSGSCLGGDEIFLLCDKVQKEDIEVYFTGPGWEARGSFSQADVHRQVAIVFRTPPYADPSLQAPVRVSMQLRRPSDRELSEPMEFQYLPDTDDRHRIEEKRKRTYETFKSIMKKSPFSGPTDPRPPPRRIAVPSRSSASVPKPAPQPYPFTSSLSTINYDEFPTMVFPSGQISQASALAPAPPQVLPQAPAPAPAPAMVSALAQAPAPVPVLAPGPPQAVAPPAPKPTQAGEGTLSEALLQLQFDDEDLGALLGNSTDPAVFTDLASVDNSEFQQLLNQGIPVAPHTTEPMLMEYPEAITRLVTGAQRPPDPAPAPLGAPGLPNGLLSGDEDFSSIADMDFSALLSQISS

| IC50 | Structure (SMILES) |
| --- | --- |
| 2100 nM | CCCCCCCCCCCCCCCCCCS(=O)(=O)NCCCNCCCCNCCCN [N1-octadecanylsulfonyl-1,14-diamino-5,10-diazabutadecane] |
| 230 nM | CCCCCCCCCCCCCCCCS(=O)(=O)NCCCNCCCCNCCCN [N-(3-(4-(3-aminopropylamino)butylamino)propyl)hexadecane-1-sulfonamide] |
| 310 nM | CCCCCCCCCCS(=O)(=O)NCCCNCCCCNCCCN [N-(3-(4-(3-aminopropylamino)butylamino)propyl)decane-1-sulfonamide] |
| 340 nM | CCCCCCCCCCCCS(=O)(=O)NCCCNCCCCNCCCN [N-(3-(4-(3-aminopropylamino)butylamino)propyl)dodecane-1-sulfonamide] |
